Experimental data reported in patent US20060058312A1, “Stabilized aqueous preparation for injection” (priority 2004, published 2006).

Legend:
Type in all cases: physicochemical
[1] = Stability test at 60° C., addition amount of ascorbic acid at pH 8.7 (Example 5), HPLC content; conditions: for remaining calcium levofolinate content compared with the initial value (100): 60° C.
Protocol: (§1) For the aqueous preparations obtained in (1) to (3) above, tests evaluating stability at 60° C./3 weeks were performed. The calcium levofolinate content remaining in the aqueous solution was measured using high performance liquid chromatography under the following conditions (the same were employed in the following experiments) 2 ml each of the test preparations were weighed, and 10 ml of the internal standard solution described below (the same was employed in the following experiments) were added thereto. Subsequently, water was added to adjust the total volume of the solution to 50 ml, thereby to prepare a test solution. Meanwhile, 62.5 mg of calcium levofolinate were dissolved in water so as to prepare a 25 ml solution. Then, to 10 ml of the resultant solution were added 10 ml of the internal standard solution, and the total volume of the solution was adjusted to 50 ml by adding water, thereby to prepare a standard solution. For 20 μl of the standard solution and the test solution, the content of calcium levofolinate was measured by the liquid chromatography method under the following conditions.
(§2) 1) Measurement Conditions • Detector: Ultraviolet absorptiometer (Measurement wavelength: 254 nm) • Column: A stainless tube having an internal diameter of 4.0 mm and a length of 15 cm was filled with 5 μm of octadecylsilylated silica gel for liquid chromatography. • Column temperature: A constant temperature near 45° C. • Mobile phase: The pH value of a mixed test solution containing 0.008 mol/L of disodium hydrogen phosphate solution/methanol/40% aqueous tetrabutylammonium hydroxide solution (385:110:1.3 (volume ratio)) was adjusted to 7.5 by adding phosphoric acid. • Flow rate: The flow rate was regulated so that the retention time of calcium levofolinate became about 10 minutes. • Internal standard solution: A solution prepared by adding water to 0.04 g of methyl parahydroxybenzoate so that the whole amount of solution is 100 ml.
About 80 ml of water for injection were added to a beaker (volume: 200 ml). Then, 0.56 g of sodium chloride, 0.3 g of tromethamine, and 1.375 g of calcium levofolinate (1.1 g, in terms of 5-formyl-(6S)-tetrahydrofolic acid) were added to it with bubbling of nitrogen gas, and the components were dissolved with stirring (this procedure was performed 5 times). Subsequently, 0.05 g, 0.075 g, 0.1 g, 0.2 g, or 0.3 g of ascorbic acid was added to each solution, and was dissolved with stirring, to prepare five solutions. Thereafter, in the case where the addition amount of ascorbic acid is 0.05 g, 0.075 g, or 0.1 g, the pH value of each solution was regulated to 8.7 by adding 5% hydrochloric acid. In the case where the addition amount of ascorbic acid is 0.2 g, or 0.3 g, the pH value of each solution was regulated to 8.7 by adding 1% aqueous sodium hydroxide solution dropwise. Water for injection was further added to each solution to adjust the total volume of the solution to 100 ml. Subsequently, the bubbling of nitrogen gas was stopped, and each solution was filtered with a filtration filter, thereby to yield a solution for injection. Subsequently, each of five 5 ml-glass ampules the inside space of which had been substituted by nitrogen gas, was filled with 5 ml of the resultant solution for injection, and was sealed by heating.
For each aqueous preparation obtained as above, a test evaluating stability at 60° C. was performed by measuring the remaining calcium levofolinate content by the high performance liquid chromatography method.

[2] = Stability test at 60° C., effect of pH value with addition of ascorbic acid (Example 2), HPLC content
Protocol: as §1, §2
About 80 ml of water for injection were added to a beaker (volume: 200 ml). Then 0.56 g of sodium chloride, 0.3 g of tromethamine, and 0.5 g of ascorbic acid were added to it with bubbling of nitrogen gas, and the components were dissolved with stirring. Subsequently, to the resultant solution were added 1.375 g of calcium levofolinate (1.1 g, in terms of 5-formyl-(6S)-tetrahydrofolic acid), and the components were dissolved with stirring under heating to 45 to 50° C. Thereafter, the pH value of the solution was adjusted to 5.0 by adding 5% hydrochloric acid solution dropwise. A similar procedure to the above, except using 1% aqueous sodium hydroxide solution in place of 5% hydrochloric acid solution, was performed to produce solutions, each having a regulated pH value of 6.0, 7.0, 8.0, or 9.0. Water for injection was further added to each solution to adjust the total volume of the solution to 100 ml. Subsequently, the bubbling of nitrogen gas was stopped, and each solution was filtered with a filtration filter, thereby to yield a solution for injection. Subsequently, each of five 5 ml-glass ampules the inside space of which had been substituted by nitrogen gas, was filled with 5 ml of the resultant solution for injection, and was sealed by heating.
For each aqueous preparation obtained as above, a stability test at 60° C. was performed by measuring the remaining calcium levofolinate content by the high performance liquid chromatography method.

[3] = Change of pH value of the aqueous solution during storage; conditions: aqueous solution adjusted to pH 6 to 7

remaining calcium levofolinate content compared with the initial value (100) ([1]; ascorbic acid 0.05%, 1 month): 84.5
remaining calcium levofolinate content compared with the initial value (100) ([1]; ascorbic acid 0.05%, 1 week): 97.0
remaining calcium levofolinate content compared with the initial value (100) ([1]; ascorbic acid 0.05%, 2 weeks): 92.1
remaining calcium levofolinate content compared with the initial value (100) ([1]; ascorbic acid 0.05%, 3 weeks): 90.3
calcium levofolinate content, Initial value (100) ([1]; ascorbic acid 0.05%): 100
remaining calcium levofolinate content compared with the initial value (100) ([1]; ascorbic acid 0.075%, 1 month): 85.7
remaining calcium levofolinate content compared with the initial value (100) ([1]; ascorbic acid 0.075%, 1 week): 97.1
remaining calcium levofolinate content compared with the initial value (100) ([1]; ascorbic acid 0.075%, 2 weeks): 91.5
remaining calcium levofolinate content compared with the initial value (100) ([1]; ascorbic acid 0.075%, 3 weeks): 90.9
calcium levofolinate content, Initial value (100) ([1]; ascorbic acid 0.075%): 100
remaining calcium levofolinate content compared with the initial value (100) ([1]; ascorbic acid 0.1%, 1 month): 84.9
remaining calcium levofolinate content compared with the initial value (100) ([1]; ascorbic acid 0.1%, 1 week): 97.3
remaining calcium levofolinate content compared with the initial value (100) ([1]; ascorbic acid 0.1%, 2 weeks): 92.2
remaining calcium levofolinate content compared with the initial value (100) ([1]; ascorbic acid 0.1%, 3 weeks): 89.3
calcium levofolinate content, Initial value (100) ([1]; ascorbic acid 0.1%): 100
remaining calcium levofolinate content compared with the initial value (100) ([1]; ascorbic acid 0.2%, 1 month): 83.4
remaining calcium levofolinate content compared with the initial value (100) ([1]; ascorbic acid 0.2%, 1 week): 96.6
remaining calcium levofolinate content compared with the initial value (100) ([1]; ascorbic acid 0.2%, 2 weeks): 91.5
remaining calcium levofolinate content compared with the initial value (100) ([1]; ascorbic acid 0.2%, 3 weeks): 88.6
calcium levofolinate content, Initial value (100) ([1]; ascorbic acid 0.2%): 100
remaining calcium levofolinate content compared with the initial value (100) ([1]; ascorbic acid 0.3%, 1 month): 82.0
remaining calcium levofolinate content compared with the initial value (100) ([1]; ascorbic acid 0.3%, 1 week): 96.1
remaining calcium levofolinate content compared with the initial value (100) ([1]; ascorbic acid 0.3%, 2 weeks): 90.5
remaining calcium levofolinate content compared with the initial value (100) ([1]; ascorbic acid 0.3%, 3 weeks): 87.7
calcium levofolinate content, Initial value (100) ([1]; ascorbic acid 0.3%): 100
remaining calcium levofolinate content compared with the initial value (100) ([2]; pH value 5.0, 60° C., 1 week): 91.5
remaining calcium levofolinate content compared with the initial value (100) ([2]; pH value 5.0, 60° C., 2 weeks): 87.5
remaining calcium levofolinate content compared with the initial value (100) ([2]; pH value 5.0, 60° C., 3 weeks): 86.0
calcium levofolinate content, Initial value (100) ([2]; pH value 5.0, Initial value): 100
remaining calcium levofolinate content compared with the initial value (100) ([2]; pH value 6.0, 60° C., 1 week): 95.8
remaining calcium levofolinate content compared with the initial value (100) ([2]; pH value 6.0, 60° C., 2 weeks): 94.1
remaining calcium levofolinate content compared with the initial value (100) ([2]; pH value 6.0, 60° C., 3 weeks): 92.8
calcium levofolinate content, Initial value (100) ([2]; pH value 6.0, Initial value): 100
remaining calcium levofolinate content compared with the initial value (100) ([2]; pH value 7.0, 60° C., 1 week): 96.3
remaining calcium levofolinate content compared with the initial value (100) ([2]; pH value 7.0, 60° C., 2 weeks): 93.4
remaining calcium levofolinate content compared with the initial value (100) ([2]; pH value 7.0, 60° C., 3 weeks): 92.5
calcium levofolinate content, Initial value (100) ([2]; pH value 7.0, Initial value): 100
remaining calcium levofolinate content compared with the initial value (100) ([2]; pH value 8.0, 60° C., 1 week): 94.4
remaining calcium levofolinate content compared with the initial value (100) ([2]; pH value 8.0, 60° C., 2 weeks): 89.2
remaining calcium levofolinate content compared with the initial value (100) ([2]; pH value 8.0, 60° C., 3 weeks): 87.0
calcium levofolinate content, Initial value (100) ([2]; pH value 8.0, Initial value): 100
remaining calcium levofolinate content compared with the initial value (100) ([2]; pH value 9.0, 60° C., 1 week): 95.7
remaining calcium levofolinate content compared with the initial value (100) ([2]; pH value 9.0, 60° C., 2 weeks): 89.7
remaining calcium levofolinate content compared with the initial value (100) ([2]; pH value 9.0, 60° C., 3 weeks): 85.3
calcium levofolinate content, Initial value (100) ([2]; pH value 9.0, Initial value): 100
change of pH value of the aqueous solution during storage [3]: gradually changes to an acid region
Compound: Nc1nc(=O)c2c([nH]1)NC[C@H](CNc1ccc(C(=O)N[C@@H](CCC(=O)O)C(=O)O)cc1)N2C=O [calcium levofolinate, (6S)-N-[4-[[(2-amino-5-formyl-1,4,5,6,7,8-hexahydro-4-oxo-6-pteridinyl)methyl]amino]benzoyl]-L-glutamic acid]
